Reference: PubChem BioAssay AID1919002 (Molecular Pharmacology Branch, DTP, NCI, 2023)

Tested on: 743489-274-T-PDC complex spheroid growth
Assay: Anticancer human tumor 743489-274-T-PDC patient-derived renal cell carcinoma cell line growth inhibition [AhR]
Details: for IC50: curve of first compound; for viability, T/C: stronger effect = lower value
Procedure, shortened: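 Spheroids combined tumor cells with HUVEC endothelial cells and human MSCs as stroma. AhR antagonists were paired with standard or investigational drugs, each dosed in half-log steps down from near clinical Cmax, or from 10 microM where Cmax was unknown.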

[1] = second compound 0.1 µM, first compound 0.0316 µM
[2] = second compound 0.1 µM, first compound 0.1 µM
[3] = second compound 0.316 µM, first compound 0.0316 µM
[4] = second compound 0.316 µM, first compound 0.1 µM
[5] = second compound 1 µM, first compound 0.0316 µM
[6] = second compound 1 µM, first compound 0.1 µM
[7] = second compound 3.16 µM, first compound 0.0316 µM
[8] = second compound 3.16 µM, first compound 0.1 µM
[9] = second compound 10 µM, first compound 0.0316 µM
[10] = second compound 10 µM, first compound 0.1 µM
[11] = second compound 0.1 µM, first compound 0.316 µM
[12] = second compound 0.1 µM, first compound 1 µM
[13] = second compound 0.1 µM, first compound 3.16 µM
[14] = second compound 0.1 µM, first compound 10 µM
[15] = second compound 0.316 µM, first compound 0.316 µM
[16] = second compound 0.316 µM, first compound 1 µM
[17] = second compound 0.316 µM, first compound 3.16 µM
[18] = second compound 0.316 µM, first compound 10 µM
[19] = second compound 1 µM, first compound 0.316 µM
[20] = second compound 1 µM, first compound 1 µM
[21] = second compound 1 µM, first compound 3.16 µM
[22] = second compound 1 µM, first compound 10 µM
[23] = second compound 3.16 µM, first compound 0.316 µM
[24] = second compound 3.16 µM, first compound 1 µM
[25] = second compound 3.16 µM, first compound 3.16 µM
[26] = second compound 3.16 µM, first compound 10 µM
[27] = second compound 10 µM, first compound 0.316 µM
[28] = second compound 10 µM, first compound 1 µM
[29] = second compound 10 µM, first compound 3.16 µM
[30] = second compound 10 µM, first compound 10 µM
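Also: spheroids exposed to agents for 7 days before readout.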
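For viability, T/C in this document: 100% = DMSO vehicle control wells.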

Compound | IC50 (second compound 0.1 µM) | IC50 (second compound 0.316 µM) | IC50 (second compound 1 µM) | IC50 (second compound 3.16 µM) | IC50 (second compound 10 µM) | viability, T/C [1] | viability, T/C [2] | viability, T/C [3] | viability, T/C [4] | viability, T/C [5] | viability, T/C [6] | viability, T/C [7] | viability, T/C [8] | viability, T/C [9] | viability, T/C [10] | viability, T/C [11] | viability, T/C [12] | viability, T/C [13] | viability, T/C [14] | viability, T/C [15] | also measured
CC[C@@]1(O)C(=O)OCc2c1cc1n(c2=O)Cc2cc3c(CN(C)C)c(O)ccc3nc2-1 + Cc1ccccc1N=Nc1ccc(NC(=O)c2ccnn2C)c(C)c1 | > 0.1 µM | > 0.1 µM | > 0.1 µM | > 0.1 µM | > 0.1 µM | 89.3% | 80.9% | 89.3% | 85.9% | 87% | 77.4% | 90.4% | 79.9% | 80.7% | 63.5% |  |  |  |  |  | viability, T/C (second compound 0.1 µM, first compound 0.000316 µM): 98.8%; viability, T/C (second compound 0.1 µM, first compound 0.001 µM): 98.7%; viability, T/C (second compound 0.1 µM, first compound 0.00316 µM): 111%; viability, T/C (second compound 0.1 µM, first compound 0.01 µM): 95.8%; viability, T/C (second compound 0.316 µM, first compound 0.000316 µM): 98.2%; viability, T/C (second compound 0.316 µM, first compound 0.001 µM): 105%; viability, T/C (second compound 0.316 µM, first compound 0.00316 µM): 106%; viability, T/C (second compound 0.316 µM, first compound 0.01 µM): 96.6%; viability, T/C (second compound 1 µM, first compound 0.000316 µM): 89.1%; viability, T/C (second compound 1 µM, first compound 0.001 µM): 94%; viability, T/C (second compound 1 µM, first compound 0.00316 µM): 92.6%; viability, T/C (second compound 1 µM, first compound 0.01 µM): 81.1%; viability, T/C (second compound 3.16 µM, first compound 0.000316 µM): 87.4%; viability, T/C (second compound 3.16 µM, first compound 0.001 µM): 81.2%; viability, T/C (second compound 3.16 µM, first compound 0.00316 µM): 93.3%; viability, T/C (second compound 3.16 µM, first compound 0.01 µM): 90.4%; viability, T/C (second compound 10 µM, first compound 0.000316 µM): 88.9%; viability, T/C (second compound 10 µM, first compound 0.001 µM): 80.7%; viability, T/C (second compound 10 µM, first compound 0.00316 µM): 87.4%; viability, T/C (second compound 10 µM, first compound 0.01 µM): 86.2%
COc1cc(C2c3cc4c(cc3C(OC3OC5COC(C)OC5C(O)C3O)C3COC(=O)C23)OCO4)cc(OC)c1O (stereo not given) + Cc1ccccc1N=Nc1ccc(NC(=O)c2ccnn2C)c(C)c1 | > 10 µM | > 10 µM | > 10 µM | > 10 µM | > 10 µM | 98.7% | 87% | 91.2% | 93.6% | 86.7% | 93.7% | 83.3% | 90.2% | 78.4% | 81.8% | 97.2% | 94.4% | 98.3% | 79.9% | 91.2% | viability, T/C [16]: 88.9%; viability, T/C [17]: 77.9%; viability, T/C [18]: 80.7%; viability, T/C [19]: 90.7%; viability, T/C [20]: 88.9%; viability, T/C [21]: 90.4%; viability, T/C [22]: 74.8%; viability, T/C [23]: 86.9%; viability, T/C [24]: 78.8%; viability, T/C [25]: 78.6%; viability, T/C [26]: 75.8%; viability, T/C [27]: 95.1%; viability, T/C [28]: 72%; viability, T/C [29]: 69.4%; viability, T/C [30]: 70.7%
Nc1ccn(C2OC(CO)C(O)C2(F)F)c(=O)n1 (stereo not given) + Cc1ccccc1N=Nc1ccc(NC(=O)c2ccnn2C)c(C)c1 | > 10 µM | > 10 µM | 9.15 µM | 1.48 µM | > 10 µM | 65% | 62.7% | 66.4% | 62% | 61% | 57.4% | 68.1% | 55.8% | 69.9% | 56.9% | 54.7% | 63.4% | 57.1% | 59.1% | 56.5% | viability, T/C [16]: 59.4%; viability, T/C [17]: 54.8%; viability, T/C [18]: 53.1%; viability, T/C [19]: 65.6%; viability, T/C [20]: 56.7%; viability, T/C [21]: 51.2%; viability, T/C [22]: 50.8%; viability, T/C [23]: 51.9%; viability, T/C [24]: 45.5%; viability, T/C [25]: 50.8%; viability, T/C [26]: 52.3%; viability, T/C [27]: 51.4%; viability, T/C [28]: 60.6%; viability, T/C [29]: 47.8%; viability, T/C [30]: 55.4%
